Laboratory results published in ChEMBL document CHEMBL1149227, “The discovery of structurally novel CCR1 antagonists derived from a hydroxyethylene peptide isostere template” (Bioorg Med Chem Lett, 2004).
pIC50: −log10 of the molar value.

The compounds below were run against T1, C-C chemokine receptor type 1 (Homo sapiens, UniProt P32246) (assay: Inhibition of CCL3 binding to C-C chemokine receptor type 1). Conditions: not given.
T1 sequence (P32246 whole entry): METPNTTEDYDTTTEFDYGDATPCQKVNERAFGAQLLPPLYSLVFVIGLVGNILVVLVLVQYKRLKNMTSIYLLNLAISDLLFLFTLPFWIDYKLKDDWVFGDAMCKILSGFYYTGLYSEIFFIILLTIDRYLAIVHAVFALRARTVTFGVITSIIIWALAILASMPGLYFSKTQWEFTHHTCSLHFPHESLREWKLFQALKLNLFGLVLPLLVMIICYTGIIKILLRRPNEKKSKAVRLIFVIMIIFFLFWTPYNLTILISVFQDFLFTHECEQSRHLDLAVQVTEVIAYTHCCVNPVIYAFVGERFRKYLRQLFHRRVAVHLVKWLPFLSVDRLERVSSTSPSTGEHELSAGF

SMILES	pIC50
C=C(Cl)C[C@H](C[C@H](O)[C@H](CC1CCCCC1)NC(=O)c1cc2cc(Cl)ccc2[nH]1)C(=O)NC	< 4.49
CNC(=O)[C@@H](CC(C)C)C[C@H](O)[C@H](CC1CCCCC1)NC(=O)c1cnc2ccccc2c1	4.52
CNC(=O)[C@H](CC(C)C)C[C@H](O)[C@H](CC(C)C)NC(=O)c1cnc2ccccc2c1	4.93
CC(C)C[C@H](C[C@H](O)[C@H](CC1CCCCC1)NC(=O)c1cnc2ccccc2c1)C(N)=O	5.10
CNC(=O)[C@H](CC(C)C)C[C@H](O)[C@H](CC1CCCCC1)NC(=O)c1cnc2ccccc2c1	5.64
CNC(=O)[C@H](CC(C)C)C[C@H](O)[C@H](Cc1ccccc1)NC(=O)c1cnc2ccccc2c1	6.19
CNC(=O)[C@@H](CC(C)C)C[C@@H](O)[C@@H](CC1CCCCC1)NC(=O)c1cnc2ccccc2c1	4.82

These compounds were tested against T2, Renin (Rattus norvegicus, UniProt P08424) (assay: Inhibitory activity of compound against renin was determined). Conditions: not given.
T2 sequence (P08424 whole entry): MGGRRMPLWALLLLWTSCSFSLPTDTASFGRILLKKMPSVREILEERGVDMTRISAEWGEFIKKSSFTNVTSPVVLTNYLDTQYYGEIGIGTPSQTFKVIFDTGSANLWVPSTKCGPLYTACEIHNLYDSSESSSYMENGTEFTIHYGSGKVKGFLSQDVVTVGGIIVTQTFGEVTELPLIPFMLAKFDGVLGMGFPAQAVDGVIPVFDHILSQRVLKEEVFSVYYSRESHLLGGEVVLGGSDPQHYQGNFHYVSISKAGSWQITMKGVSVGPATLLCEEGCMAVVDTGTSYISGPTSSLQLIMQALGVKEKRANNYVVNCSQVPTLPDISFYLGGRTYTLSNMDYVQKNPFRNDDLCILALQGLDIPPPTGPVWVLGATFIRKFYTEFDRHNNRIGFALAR

SMILES	pIC50
C=C(Cl)C[C@H](C[C@H](O)[C@H](CC1CCCCC1)NC(=O)c1cc2cc(Cl)ccc2[nH]1)C(=O)NC	7.39
CNC(=O)[C@H](CC(C)C)C[C@H](O)[C@H](CC1CCCCC1)NC(=O)c1cnc2ccccc2c1	< 5.00

These compounds were tested on THP-1 (assay: (§1) Inhibition of CCL3 induced chemotaxis in THP-1 cells; inactive at a concentration of 25 uM). Conditions: Homo sapiens.
Type: functional, cell-based

SMILES	pIC50
CNC(=O)[C@H](CC(C)C)C[C@@H](O)[C@@H](CC1CCCCC1)NC(=O)c1cnc2ccccc2c1	> 4.30
CNC(=O)[C@H](CC(C)C)C[C@@H](O)[C@H](CC1CCCCC1)NC(=O)c1cnc2ccccc2c1	< 4.60
CNC(=O)[C@@H](CC(C)C)C[C@H](O)[C@@H](CC1CCCCC1)NC(=O)c1cnc2ccccc2c1	> 4.30
CNC(=O)[C@H](CC(C)C)C[C@H](O)[C@H](CC1CCCCC1)NS(=O)(=O)c1cnc2ccccc2c1	> 4.30
CNC(=O)[C@@H](CC(C)C)C[C@@H](O)[C@@H](CC1CCCCC1)NC(=O)c1cnc2ccccc2c1	> 4.30
CC[C@H](C)[C@H](NC(=O)c1cnc2ccccc2c1)[C@@H](O)C[C@@H](CC(C)C)C(=O)NC	> 4.30
CC(C)C[C@H](C[C@H](O)[C@H](CC1CCCCC1)NC(=O)c1cnc2ccccc2c1)C(=O)N(C)C	> 4.30

The compounds below were run on THP-1 (assay: Inhibition of CCL5 induced chemotaxis in THP-1 cells). Conditions: Homo sapiens.
Type: functional, cell-based

SMILES	pIC50
C=C(Cl)C[C@H](C[C@H](O)[C@H](CC1CCCCC1)NC(=O)c1cc2cc(Cl)ccc2[nH]1)C(=O)NC	< 4.60
CNC(=O)[C@H](CC(C)C)C[C@H](O)[C@H](CC1CCCCC1)NC(=O)c1cnc2ccccc2c1	6.20

What follows are compounds tested on THP-1 (assay: Inhibition of CCL3 induced chemotaxis in THP-1 cells). Conditions: Homo sapiens.
Type: functional, cell-based

SMILES	pIC50
CNC(=O)[C@@H](CC(C)C)C[C@H](O)[C@H](CC1CCCCC1)NC(=O)c1cnc2ccccc2c1	4.92
CC(C)C[C@H](C[C@H](O)[C@H](CC1CCCCC1)NC(=O)c1cnc2ccccc2c1)C(N)=O	5.20
CNC(=O)[C@@H](CC(C)C)C[C@@H](O)[C@H](CC1CCCCC1)NC(=O)c1cnc2ccccc2c1	5.11

Each compound was assayed on THP-1 (assay: as §1). Conditions: Homo sapiens.
Type: functional

SMILES	inhibition at 25 µM [%]
CNC(=O)[C@H](CC(C)C)C[C@H](O)[C@@H](CC1CCCCC1)NC(=O)c1cnc2ccccc2c1	< 50
